In patent US8399465B2, “Compounds with two fused bicyclic heteroaryl moieties as modulators of leukotriene A4 hydrolase” (Janssen Pharmaceutica NV, priority 2009, dated 2013):
Where a name gives a salt, the structure may show the parent alone.

What was measured:
[1] = target: T1, recombinant human LTA4 hydrolase (rhLTA4H) (Homo sapiens, UniProt P09960); assay: Recombinant human LTA4 hydrolase assay for LTA4 hydrolase inhibitor activity; type: biochemical; conditions: rhLTA4H, LTB4 by immunoassay; single determination or average of two or more; mark after value = form tested: ′ free base, ″ hydrochloride, ^ formate; read-out: IC50
T1 construct: made in house; host or cells: Spodoptera frugiperda (Sf-9) cells, baculovirus (pFastBac1)
T1 sequence (P09960 1-611): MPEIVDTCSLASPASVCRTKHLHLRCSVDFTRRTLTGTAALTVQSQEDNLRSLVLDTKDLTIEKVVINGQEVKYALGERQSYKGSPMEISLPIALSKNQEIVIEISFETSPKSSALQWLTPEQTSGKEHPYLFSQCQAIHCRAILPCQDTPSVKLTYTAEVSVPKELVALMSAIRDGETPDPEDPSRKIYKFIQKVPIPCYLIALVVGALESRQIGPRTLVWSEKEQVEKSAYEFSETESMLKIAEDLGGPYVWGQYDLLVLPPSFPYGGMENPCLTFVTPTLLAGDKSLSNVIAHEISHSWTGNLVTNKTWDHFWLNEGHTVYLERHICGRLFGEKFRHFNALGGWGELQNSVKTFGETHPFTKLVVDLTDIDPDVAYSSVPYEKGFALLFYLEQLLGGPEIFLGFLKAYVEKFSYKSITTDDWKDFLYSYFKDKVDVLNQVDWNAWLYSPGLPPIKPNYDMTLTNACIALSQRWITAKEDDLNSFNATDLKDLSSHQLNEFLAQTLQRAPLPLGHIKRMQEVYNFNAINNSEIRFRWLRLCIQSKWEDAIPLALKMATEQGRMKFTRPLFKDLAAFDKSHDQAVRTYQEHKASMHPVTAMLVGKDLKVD
Procedure, shortened: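 LTB4 formation, measured by enzyme immunoassay, was the read-out. The enzyme, recombinant human LTA4H expressed in Sf-9 insect cells (10 ng per reaction), was exposed to compound for 10 min at room temperature before hydrolysed-ester LTA4 substrate was added for 30 min. Enzyme-free negatives were included.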

[2] = tested on: LTB4 production in murine blood (LTA4H); assay: LTB4 production by calcium ionophore-stimulated murine blood for LTA4H inhibitor activity; type: cell-based, CD-1 mice; conditions: Mus musculus; murine blood diluted 1 in 15, A23187 stimulated; single determination or average; mark after value = form tested: ′ free base, ″ hydrochloride, ^ formate; read-out: IC50
Procedure, shortened: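 LTB4 was measured by ELISA in supernatants after calcium ionophore A23187 stimulation (final 7 μg/mL, 30 min, 37° C) of CD-1 mouse blood collected on heparin. Compound was preincubated with the blood for 15 min beforehand. Values come from one determination or average several.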

SMILES | IC50 [1] [nM] | IC50 [2] [nM]
c1cnc2nc(Oc3ccc4c(CNC5CCCC5)coc4c3)sc2c1 [Example 298, Cyclopentyl-[6-(thiazolo[4,5-b]pyridin-2-yloxy)-benzofuran-3-ylmethyl]-amine] | 12 | 17
c1cnc2nc(Oc3ccc4c(CNC5CCCCC5)coc4c3)sc2c1 [Example 299, Cyclohexyl-[6-(thiazolo[4,5-b]pyridin-2-yloxy)-benzofuran-3-ylmethyl]-amine] | 16 | 12
c1csc(CNCc2coc3cc(Oc4nc5ncccc5s4)ccc23)c1 [Example 300, [6-(Thiazolo[4,5-b]pyridin-2-yloxy)-benzofuran-3-ylmethyl]-thiophen-2-ylmethyl-amine] | 20 | 150
CC(C)(C)NCc1coc2cc(Oc3nc4ncccc4s3)ccc12 [Example 301, tert-Butyl-[6-(thiazolo[4,5-b]pyridin-2-yloxy)-benzofuran-3-ylmethyl]-amine formate] | 15 | 4
CC(C)(C)C1CCN(Cc2coc3cc(Oc4nc5ncccc5s4)ccc23)CC1 [Example 302, 2-[3-(4-tert-Butyl-piperidin-1-ylmethyl)-benzofuran-6-yloxy]-thiazolo[4,5-b]pyridine formate] | 20 | 78
CCCNCc1coc2cc(Oc3nc4ncccc4s3)ccc12 [Example 303, Propyl-[6-(thiazolo[4,5-b]pyridin-2-yloxy)-benzofuran-3-ylmethyl]-amine formate] | 11 | 15
CC(C)CNCc1coc2cc(Oc3nc4ncccc4s3)ccc12 [Example 304, Isobutyl-[6-(thiazolo[4,5-b]pyridin-2-yloxy)-benzofuran-3-ylmethyl]-amine formate] | 3 | 24
c1cnc2nc(Oc3ccc4c(CNCCN5CCOCC5)coc4c3)sc2c1 [Example 306, (2-Morpholin-4-yl-ethyl)-[6-(thiazolo[4,5-b]pyridin-2-yloxy)-benzofuran-3-ylmethyl]-amine formate] | 95 | 10
CC(C)CN1CCN(Cc2coc3cc(Oc4nc5ncccc5s4)ccc23)CC1 [Example 308, 2-[3-(4-Isobutyl-piperazin-1-ylmethyl)-benzofuran-6-yloxy]-thiazolo[4,5-b]pyridine formate] | 9 | 71
CC(=O)N[C@H]1CCN(Cc2coc3cc(Oc4nc5ncccc5s4)ccc23)C1 [Example 310, (S)—N-{1-[6-(Thiazolo[4,5-b]pyridin-2-yloxy)-benzofuran-3-ylmethyl]-pyrrolidin-3-yl}-acetamide] | 13 | 36
OC[C@@H]1CCCN1Cc1coc2cc(Oc3nc4ccccc4s3)ccc12 [Example 312, (S)-{1-[6-(Benzothiazol-2-yloxy)-benzofuran-3-ylmethyl]-pyrrolidin-2-yl}-methanol] | 22 | 160
CCCOC1CN(Cc2coc3cc(Oc4nc5ncccc5s4)ccc23)C1 [Example 314, 2-[3-(3-Propoxy-azetidin-1-ylmethyl)-benzofuran-6-yloxy]-thiazolo[4,5-b]pyridine] | 15 | 28
OC1CN(Cc2coc3cc(Oc4nc5ncccc5s4)ccc23)C1 [Example 315, 1-[6-(Thiazolo[4,5-b]pyridin-2-yloxy)-benzofuran-3-ylmethyl]-azetidin-3-ol] | 10 | 34
FC1(F)CN(Cc2coc3cc(Oc4nc5ncccc5s4)ccc23)C1 [Example 316, 2-[3-(3,3-Difluoro-azetidin-1-ylmethyl)-benzofuran-6-yloxy]-thiazolo[4,5-b]pyridine] | 29 | 120
c1ccc(CCNCc2coc3cc(Oc4nc5ncccc5s4)ccc23)cc1 [Example 321, Phenethyl-[6-(thiazolo[4,5-b]pyridin-2-yloxy)-benzofuran-3-ylmethyl]-amine formate] | 40 | 51
CC(=O)N(C1CC1)C1CCN(Cc2coc3cc(Oc4nc5ncccc5s4)ccc23)CC1 [Example 322, N-Cyclopropyl-N-{1-[6-(thiazolo[4,5-b]pyridin-2-yloxy)-benzofuran-3-ylmethyl]-piperidin-4-yl}-acetamide] | 6 | 30
CC(=O)N(C(C)C)C1CCN(Cc2coc3cc(Oc4nc5ncccc5s4)ccc23)CC1 [Example 323, N-Isopropyl-N-{1-[6-(thiazolo[4,5-b]pyridin-2-yloxy)-benzofuran-3-ylmethyl]-piperidin-4-yl}-acetamide] | 9 | 41
CC(=O)N[C@@H]1CCN(Cc2coc3cc(Oc4nc5ncccc5s4)ccc23)C1 [Example 324, (R)—N-{1-[6-(Thiazolo[4,5-b]pyridin-2-yloxy)-benzofuran-3-ylmethyl]-pyrrolidin-3-yl}-acetamide] | 8 | 16
c1csc(CN2CCN(Cc3coc4cc(Oc5nc6ncccc6s5)ccc34)CC2)c1 [Example 325, 2-[3-(4-Thiophen-2-ylmethyl-piperazin-1-ylmethyl)-benzofuran-6-yloxy]-thiazolo[4,5-b]pyridine] | 26 | 78
c1cnc2nc(Oc3ccc4c(CN5CCN6CCCC6C5)coc4c3)sc2c1 (stereo not shown) [Example 326, 2-[3-(Hexahydro-pyrrolo[1,2-a]pyrazin-2-ylmethyl)-benzofuran-6-yloxy]-thiazolo[4,5-b]pyridine] | 21 | 120
CCN(CC)C1CCN(Cc2coc3cc(Oc4nc5ncccc5s4)ccc23)C1 (stereo not shown) [Example 327, Diethyl-{1-[6-(thiazolo[4,5-b]pyridin-2-yloxy)-benzofuran-3-ylmethyl]-pyrrolidin-3-yl}-amine] | 29 | 130
F[C@@H]1CCN(Cc2coc3cc(Oc4nc5ncccc5s4)ccc23)C1 [Example 328, (R)-2-[3-(3-Fluoro-pyrrolidin-1-ylmethyl)-benzofuran-6-yloxy]-thiazolo[4,5-b]pyridine] | 12 | 93
Fc1ccc2c(c1)CN(Cc1coc3cc(Oc4nc5ncccc5s4)ccc13)C2 [Example 330, 2-[3-(5-Fluoro-1,3-dihydro-isoindol-2-ylmethyl)-benzofuran-6-yloxy]-thiazolo[4,5-b]pyridine] | 54 | 1040
c1ccc2c(c1)CN(Cc1coc3cc(Oc4nc5ncccc5s4)ccc13)C2 [Example 331, 2-[3-(1,3-Dihydro-isoindol-2-ylmethyl)-benzofuran-6-yloxy]-thiazolo[4,5-b]pyridine] | 54 | 1060
CC(=O)N1[C@@H]2CC[C@H]1C[C@@H](NCc1coc3cc(Oc4nc5ncccc5s4)ccc13)C2 [Example 332, meso-endo-1-(3-{[6-(Thiazolo[4,5-b]pyridin-2-yloxy)-benzofuran-3-ylmethyl]-amino}-8-aza-bicyclo[3.2.1]oct-8-yl)-ethanone formate] | 8 | 100
CC(=O)N1[C@@H]2CC[C@H]1C[C@H](NCc1coc3cc(Oc4nc5ncccc5s4)ccc13)C2 [Example 333, meso-exo-1-(3-{[6-(Thiazolo[4,5-b]pyridin-2-yloxy)-benzofuran-3-ylmethyl]-amino}-8-aza-bicyclo[3.2.1]oct-8-yl)-ethanone formate] | 6 | 24
